Data as given in US9796677B2, “Amide compound and pharmaceutical comprising same” (JAPAN SCIENCE AND TECHNOLOGY AGENCY, priority 2013, dated 2017).

Assays:
O-acylisopeptide of Aβ = target: T1, O-acylisopeptide of Aβ (Homo sapiens, UniProt P05067); assay: Aβ aggregation inhibition test (thioflavine T fluorescence); format: biochemical; conditions: final sample concentration 30 μM, Aβ O-acylisopeptide 10 μM, pH 7.4, 37° C., 1% DMSO; DMSO control defined as 100
T1 construct: containing O-acylisopeptide of Aβ (10 μM)
T1 sequence (P05067 672-713 limits assumed): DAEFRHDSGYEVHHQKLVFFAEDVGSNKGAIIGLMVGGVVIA
Protocol: A test sample solution (solution in DMSO) was added into a 0.1 M phosphate buffer solution (pH 7.4, 50 μL) containing O-acylisopeptide of Aβ (10 μM) (final sample concentration: 30 μM, 1% DMSO), and the mixture was incubated at 37° C. for an arbitrary time. Then, an aliquot (10 μL) of the reaction solution was added to a mixed solution of a thioflavine T solution (50 μM thioflavine T, 10 μL) and a 50 mM glycine-NaOH buffer (pH 8.5, 396 μL) and immediately mixed therewith, and the fluorescence intensity of thioflavine T was measured. In the fluorescence intensity measurement, 440 nm was used as an excitation wavelength, and 480 nm was used as a fluorescent wavelength.

Aβ = conditions: background statement on the known pentapeptide; cited from earlier work
Aβ, sequence (P05067 672-711 limits assumed): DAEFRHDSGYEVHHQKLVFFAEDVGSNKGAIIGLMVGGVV

Row | Compound | Aggregation inhibition ratio (lower value means stronger inhibitory activity) (O-acylisopeptide of Aβ) | Aβ aggregation inhibitory activity (Aβ)
1 | CC(C)CCNC(=O)c1cc(Cc2ccccc2)cc(OCc2ccccc2)n1 [Compound 5, 6-Benzyloxy-4-benzyl-N-isoamylpicolinamide] | 75 | 
2 | CC(C)CCCNC(=O)c1cc(Cc2ccccc2)cc(Oc2ccccc2)n1 [Compound 3, 4-Benzyl-6-phenoxy-N-(4-methylpentyl)picolinamide] | 58 | 
3 | CC(C)CCNC(=O)c1cc(Cc2ccccc2)cc(OC2CCCCC2)n1 [Compound 4, 4-Benzyl-6-cyclohexyloxy-N-isoamylpicolinamide] | 60 | 
4 | L-[Lys-Leu-Val-Phe-Phe] (KLVFF) [(known), used as control] |  | very weak
5 | CC(C)CCOc1cc(Cc2ccccc2)cc(C(=O)NCCc2ccccc2)n1 [Compound 6, 4-Benzyl-6-(3-methylbutoxy)-N-phenylethylpicolinamide] | 60 | 
6 | O=C(NC1C2CC3CC(C2)CC1C3)c1nc(Cc2ccccc2)cc(Oc2ccccc2)n1 (centres unmarked) [Compound 12, N-(Adamantan-2-yl)-4-benzyl-6-phenoxypyrimidine-2-carboxamide] | 40 | 
7 | CC(C)CCNC(=O)c1cc(Cc2ccc3ccccc3c2)cc(Oc2ccccc2)n1 [Compound 2, 4-(Naphthalen-2-yl)methyl-6-phenoxy-N-isoamylpicolinamide] | 52 | 
8 | CC(C)CCNC(=O)c1cc(Cc2ccccc2)cc(Oc2ccccc2)n1 [Compound 1, 4-Benzyl-6-phenoxy-N-isoamylpicolinamide] | 61 | 
